The values that follow come from patent US20090298834A1, “4-(AMINOMETHYL)CYCLOHEXANAMINE DERIVATIVES AS CALCIUM CHANNEL BLOCKERS” (priority 2008, published 2009).

The target of one test is T1, human α1G T-type channels (Homo sapiens, UniProt O43497).
T1 construct: expressed in transfected cells; host or cells: HEK 293
T1 sequence (O43497 whole entry): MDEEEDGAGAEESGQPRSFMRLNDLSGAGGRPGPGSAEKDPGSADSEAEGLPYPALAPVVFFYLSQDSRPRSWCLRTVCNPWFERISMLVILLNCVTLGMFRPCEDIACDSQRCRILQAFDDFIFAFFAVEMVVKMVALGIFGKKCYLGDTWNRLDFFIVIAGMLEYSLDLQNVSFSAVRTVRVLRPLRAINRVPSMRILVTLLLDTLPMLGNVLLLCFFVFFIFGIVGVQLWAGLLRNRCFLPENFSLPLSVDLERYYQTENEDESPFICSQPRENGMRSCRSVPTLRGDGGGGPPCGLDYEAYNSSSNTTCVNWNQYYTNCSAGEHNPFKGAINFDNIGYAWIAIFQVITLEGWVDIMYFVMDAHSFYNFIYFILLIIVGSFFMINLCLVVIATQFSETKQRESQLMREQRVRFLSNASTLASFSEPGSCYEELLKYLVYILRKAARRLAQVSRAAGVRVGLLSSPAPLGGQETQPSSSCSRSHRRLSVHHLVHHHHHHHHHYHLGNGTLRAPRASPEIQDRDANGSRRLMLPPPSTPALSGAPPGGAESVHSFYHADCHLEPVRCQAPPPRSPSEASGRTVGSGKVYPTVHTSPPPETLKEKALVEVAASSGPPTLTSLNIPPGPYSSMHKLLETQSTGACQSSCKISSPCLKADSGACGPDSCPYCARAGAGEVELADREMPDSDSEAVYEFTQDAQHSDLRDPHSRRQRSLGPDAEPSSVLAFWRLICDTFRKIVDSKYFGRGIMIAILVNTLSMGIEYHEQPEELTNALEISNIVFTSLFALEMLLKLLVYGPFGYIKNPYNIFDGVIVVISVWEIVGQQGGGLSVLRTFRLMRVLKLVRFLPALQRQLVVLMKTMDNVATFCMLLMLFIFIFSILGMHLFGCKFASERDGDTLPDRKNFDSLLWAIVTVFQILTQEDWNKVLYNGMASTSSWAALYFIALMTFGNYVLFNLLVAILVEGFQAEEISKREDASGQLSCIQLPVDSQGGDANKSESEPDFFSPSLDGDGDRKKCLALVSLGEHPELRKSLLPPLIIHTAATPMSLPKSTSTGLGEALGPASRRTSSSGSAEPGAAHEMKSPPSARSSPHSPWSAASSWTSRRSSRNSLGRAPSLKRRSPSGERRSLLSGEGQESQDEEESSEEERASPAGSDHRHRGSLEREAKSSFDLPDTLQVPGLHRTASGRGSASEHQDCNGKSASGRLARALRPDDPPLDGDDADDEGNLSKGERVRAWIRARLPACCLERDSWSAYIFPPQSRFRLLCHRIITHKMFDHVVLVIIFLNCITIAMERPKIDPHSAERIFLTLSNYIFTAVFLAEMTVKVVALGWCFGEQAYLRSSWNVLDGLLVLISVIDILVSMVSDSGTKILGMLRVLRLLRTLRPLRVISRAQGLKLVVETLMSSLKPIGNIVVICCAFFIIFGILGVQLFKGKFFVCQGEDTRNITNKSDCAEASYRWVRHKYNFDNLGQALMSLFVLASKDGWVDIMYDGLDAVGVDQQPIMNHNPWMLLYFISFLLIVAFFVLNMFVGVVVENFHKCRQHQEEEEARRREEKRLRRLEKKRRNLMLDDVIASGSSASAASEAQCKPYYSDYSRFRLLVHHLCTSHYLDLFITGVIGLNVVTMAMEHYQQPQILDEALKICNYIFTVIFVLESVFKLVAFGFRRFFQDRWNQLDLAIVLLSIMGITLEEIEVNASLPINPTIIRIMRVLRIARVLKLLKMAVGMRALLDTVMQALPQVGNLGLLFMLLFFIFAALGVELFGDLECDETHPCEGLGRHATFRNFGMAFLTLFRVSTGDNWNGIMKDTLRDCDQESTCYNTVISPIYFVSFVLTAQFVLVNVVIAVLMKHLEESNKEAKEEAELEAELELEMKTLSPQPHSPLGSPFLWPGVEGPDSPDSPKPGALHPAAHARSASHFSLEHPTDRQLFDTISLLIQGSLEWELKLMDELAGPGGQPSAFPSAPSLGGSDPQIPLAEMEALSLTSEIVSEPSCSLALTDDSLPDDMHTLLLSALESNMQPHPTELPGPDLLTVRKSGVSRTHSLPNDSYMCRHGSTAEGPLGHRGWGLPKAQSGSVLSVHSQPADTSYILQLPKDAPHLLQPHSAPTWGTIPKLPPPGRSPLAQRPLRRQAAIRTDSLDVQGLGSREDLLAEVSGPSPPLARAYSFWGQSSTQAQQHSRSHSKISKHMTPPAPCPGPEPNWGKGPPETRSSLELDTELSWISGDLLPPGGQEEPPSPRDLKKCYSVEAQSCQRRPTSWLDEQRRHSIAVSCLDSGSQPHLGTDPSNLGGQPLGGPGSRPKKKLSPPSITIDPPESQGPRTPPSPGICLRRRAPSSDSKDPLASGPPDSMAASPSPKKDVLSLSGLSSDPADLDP
In words: T-type calcium channel block, whole cell patch clamp (α1G). The class given is cell-based. The settings on record: HEK cells stably expressing human α1G; mainly non-inactivated protocol; values above 10 μM represented as 10 μM, values below 0.30 μM represented as 0.30 μM. Here is the method: (§1) T-type calcium channel blocking activity was assayed in human embryonic kidney cells, HEK 293, stably transfected with the T-type calcium channel subunits. Briefly, cells were cultured in Dulbecco's modified eagle medium (DMEM) supplemented with 10% fetal bovine serum, 200 U/ml penicillin and 0.2 mg/ml streptomycin at 37° C. with 5% CO2. At 85% confluency cells were split with 0.25% trypsin/1 mM EDTA and plated at 10% confluency on glass coverslips. At 12 hours the medium was replaced and the cells stably transfected using a standard calcium phosphate protocol and the appropriate calcium channel cDNA's. Fresh DMEM was supplied and the cells transferred to 28° C./5% CO2. Cells were incubated for 1 to 2 days prior to whole cell recording.
(§2) Standard patch-clamp techniques were employed to identify blockers of T-type currents. Briefly, previously described HEK cell lines stably expressing human α1G, α1H and α1I T-type channels were used for all the recordings (passage #: 4-20, 37° C., 5% CO2). Whole cell patch clamp experiments were performed using an Axopatch 200B amplifier (Axon Instruments, Burlingame, Calif.) linked to a personal computer equipped with pCLAMP software. Data were analyzed using Clampfit (Axon Instruments) and SigmaPlot 4.0 (Jandel Scientific). To obtain T-type currents, plastic dishes containing semi-confluent cells were positioned on the stage of a ZEISS AXIOVERT S100 microscope after replacing the culture medium with external solution (see below). Whole-cell patches were obtained using pipettes (borosilicate glass with filament, O.D.: 1.5 mm, I.D.: 0.86 mm, 10 cm length), fabricated on a SUTTER P-97 puller with resistance values of ˜5 MΩ (see below for internal solution).
(§3) In the non-inactivating protocol, the holding potential is set at −110 mV and with a pre-pulse at −100 mV for 1 second prior to the test pulse at −40 mV for 50 ms. In the inactivation protocol, the pre-pulse is at approximately −85 mV for 1 second, which inactivates about 15% of the T-type channels.
(§4) Test compounds were dissolved in external solution, 0.1-0.01% DMSO. After 10 min rest, they were applied by gravity close to the cell using a WPI microfil tubing. The “non-inactivated” pre-pulse was used to examine the resting block of a compound. The “inactivated” protocol was employed to study voltage-dependent block. However, the initial data shown below were mainly obtained using the non-inactivated protocol only. . IC50 values are shown for various compounds of the invention in Table 4 for the drug of interest. Values are shown in μM and values above 10 μM are simply represented as 10 μM.
Background: Patch clamp records ionic current or voltage across a cell membrane.
In general, IC50 refers to the concentration that inhibits the measured activity by half. `N[C@H]1CC[C@@H](CC(=O)Nc2cc(C(F)(F)F)cc(C(F)(F)F)c2)CC1` [Compound 106, 2-(cis-4-aminocyclohexyl)-N-(3,5-bis(trifluoromethyl)phenyl)acetamide]: the IC50 was 6.11 µM.

Consider `NC1(C(=O)N[C@H]2CC[C@@H](CC(=O)NCc3cccc(OC(F)(F)F)c3)CC2)CCCCC1` [Compound 109, 1-amino-N-(cis-4-(2-oxo-2-(3-(trifluoromethoxy)benzylamino)ethyl)cyclohexyl)cyclohexanecarboxamide], for which the concentration for half-maximal inhibition (IC50) is no less than 10 µM.

`O=C(C[C@H]1CC[C@@H](NC(=O)C2(c3ccccc3)CCNCC2)CC1)NCc1cccc(OC(F)(F)F)c1` [Compound 114, N-(cis-4-(2-oxo-2-(3-(trifluoromethoxy)benzylamino)ethyl)cyclohexyl)-4-phenylpiperidin-4-carboxamide]: the IC50 is no less than 10 µM.

Consider `O=C(C[C@H]1CC[C@H](NC(=O)[C@H]2CCCN2)CC1)Nc1cc(C(F)(F)F)cc(C(F)(F)F)c1` [Compound 118, (R)-N-(trans-4-(2-(3,5-bis(trifluoromethyl)phenylamino)-2-oxoethyl)cyclohexyl)pyrrolidine-2-carboxamide], for which the IC50 turned out to be 4.89 µM.

As to `O=C(C[C@H]1CC[C@H](NC(=O)[C@@H]2CCCCN2)CC1)Nc1cc(C(F)(F)F)cc(C(F)(F)F)c1` [Compound 120, (S)-N-(trans-4-(2-(3,5-bis(trifluoromethyl)phenylamino)-2-oxoethyl)cyclohexyl)piperidine-2-carboxamide], the IC50 stood at 4.44 µM.

As to `O=C(NC[C@H]1CC[C@@H](NC(=O)C2(c3ccccc3)CCNCC2)CC1)c1cc(C(F)(F)F)cc(C(F)(F)F)c1` [Compound 128, N-(cis-4-((3,5-bis(trifluoromethyl)benzamido)methyl)cyclohexyl)-4-phenylpiperidine-4-carboxamide], the concentration for half-maximal inhibition (IC50) amounted to 5.78 µM.

On to `Cc1ccc(-c2csc(NC(=O)C[C@H]3CC[C@@H](NC(=O)[C@@H]4C[C@@H](c5ccccc5)CN4)CC3)n2)cc1` [Compound 129, (2S,4S)-N-(cis-4-(2-oxo-2-(4-p-tolylthiazol-2-ylamino)ethyl)cyclohexyl)-4-phenylpyrrolidine-2-carboxamide], for which the IC50 amounted to 5.29 µM.

Turning to `Cc1ccc(-c2csc(NC(=O)C[C@H]3CC[C@@H](NC(=O)[C@@H]4C[C@H](c5ccccc5)CN4)CC3)n2)cc1` [Compound 130, (2S,4R)-N-(cis-4-(2-oxo-2-(4-p-tolylthiazol-2-ylamino)ethyl)cyclohexyl)-4-phenylpyrrolidine-2-carboxamide], the IC50 is 4.11 µM.

Consider `Cc1ccc(-c2csc(NC(=O)C[C@H]3CC[C@@H](NC(=O)[C@@H]4CC[C@H](c5ccccc5)N4)CC3)n2)cc1` [Compound 131], for which the IC50 came out at 7.56 µM.

In the case of `O=C(NC[C@H]1CC[C@H](NC(=O)C2(c3ccccc3)CCNCC2)CC1)c1cc(C(F)(F)F)cc(C(F)(F)F)c1` [Compound 136, N-(trans-4-((3,5-bis(trifluoromethyl)benzamido)methyl)cyclohexyl)-4-phenylpiperidine-4-carboxamide], the IC50 was 3.81 µM.

For `Cc1ccc(-c2csc(NC(=O)C[C@H]3CC[C@@H](NC(=O)[C@H]4CC[C@@H](c5ccccc5)N4)CC3)n2)cc1` [Compound 138, (2R,5S)-N-(cis-4-(2-oxo-2-(4-p-tolylthiazol-2-ylamino)ethyl)cyclohexyl)-5-phenylpyrrolidine-2-carboxamide], the IC50 came to 4.88 µM.

As to `NC1(C(=O)N[C@H]2CC[C@@H](CNC(=O)c3cc(C(F)(F)F)cc(C(F)(F)F)c3)CC2)CCCC1` [Compound 140, N-((cis-4-(1-aminocyclopentanecarboxamido)cyclohexyl)methyl)-3,5-bis(trifluoromethyl)benzamide], the IC50 is 9.67 µM.

Regarding `NC1(C(=O)N[C@H]2CC[C@@H](CNC(=O)c3cc(F)cc(C(F)(F)F)c3)CC2)CCCC1` [Compound 141, N-((cis-4-(1-aminocyclopentanecarboxamido)cyclohexyl)methyl)-3-fluoro-5-(trifluoromethyl)benzamide], the IC50 is no less than 10 µM.

As for `NC1(C(=O)N[C@H]2CC[C@H](CNC(=O)c3cc(C(F)(F)F)cc(C(F)(F)F)c3)CC2)CCCC1` [Compound 142, N-((trans-4-(1-aminocyclopentanecarboxamido)cyclohexyl)methyl)-3,5-bis(trifluoromethyl)benzamide], the IC50 is no less than 10 µM.

Consider `O=C(C[C@H]1CC[C@@H](NC(=O)C2CCNCC2)CC1)Nc1cc(C(F)(F)F)cc(C(F)(F)F)c1` [Compound 144, N-(cis-4-(2-(3,5-bis(trifluoromethyl)phenylamino)-2-oxoethyl)cyclohexyl)piperidine-4-carboxamide], for which the IC50 is 3.82 µM.

For `O=C(C[C@H]1CC[C@@H](NC(=O)[C@H]2C[C@H](O)CN2)CC1)Nc1cc(C(F)(F)F)cc(C(F)(F)F)c1` [Compound 145], the IC50 is 7.6 µM.

As to `NC1(C(=O)N[C@H]2CC[C@@H](CC(=O)Nc3cc(C(F)(F)F)cc(C(F)(F)F)c3)CC2)CCOCC1` [Compound 147, 4-amino-N-(cis-4-(2-(3,5-bis(trifluoromethyl)phenylamino)-2-oxoethyl)cyclohexyl)tetrahydro-2H-pyran-4-carboxamide], the IC50 came to 4.59 µM.

In the case of `O=C(C[C@H]1CC[C@@H](NC(=O)C2(O)CCNCC2)CC1)Nc1cc(C(F)(F)F)cc(C(F)(F)F)c1` [Compound 148, N-(cis-4-(2-(3,5-bis(trifluoromethyl)phenylamino)-2-oxoethyl)cyclohexyl)-4-hydroxypipendine-4-carboxamide], the IC50 amounted to 2.94 µM.

On to `NC1(C(=O)N[C@H]2CC[C@@H](CC(=O)Nc3cc(C(F)(F)F)cc(C(F)(F)F)c3)CC2)CC1` [Compound 149, 1-amino-N-(cis-4-(2-(3,5-bis(trifluoromethyl)phenylamino)-2-oxoethyl)cyclohexyl)cyclopropanecarboxamide], for which the IC50 came out at 4.07 µM.

Turning to `O=C(NC[C@H]1CC[C@H](NCCNS(=O)(=O)C(F)(F)F)CC1)c1cc(C(F)(F)F)cc(C(F)(F)F)c1` [Compound 155, 3,5-bis(trifluoromethyl)-N-((trans-4-(2-(trifluoromethylsulfonamido)ethylamino)cyclohexyl)methyl)benzamide], the IC50 is 2.65 µM.

On to `O=C(NC[C@H]1CC[C@@H](NCCNS(=O)(=O)C(F)(F)F)CC1)c1cc(F)cc(C(F)(F)F)c1` [Compound 156, 3-fluoro-5-(trifluoromethyl)-N-((cis-4-(2-(trifluoromethylsulfonamido)ethylamino)cyclohexyl)methyl)benzamide], for which the IC50 was no less than 10 µM.

The target in a further test is T2, human α1H T-type channels (Homo sapiens, UniProt O95180).
T2 construct: expressed in transfected cells; host or cells: HEK 293
T2 sequence (O95180 whole entry): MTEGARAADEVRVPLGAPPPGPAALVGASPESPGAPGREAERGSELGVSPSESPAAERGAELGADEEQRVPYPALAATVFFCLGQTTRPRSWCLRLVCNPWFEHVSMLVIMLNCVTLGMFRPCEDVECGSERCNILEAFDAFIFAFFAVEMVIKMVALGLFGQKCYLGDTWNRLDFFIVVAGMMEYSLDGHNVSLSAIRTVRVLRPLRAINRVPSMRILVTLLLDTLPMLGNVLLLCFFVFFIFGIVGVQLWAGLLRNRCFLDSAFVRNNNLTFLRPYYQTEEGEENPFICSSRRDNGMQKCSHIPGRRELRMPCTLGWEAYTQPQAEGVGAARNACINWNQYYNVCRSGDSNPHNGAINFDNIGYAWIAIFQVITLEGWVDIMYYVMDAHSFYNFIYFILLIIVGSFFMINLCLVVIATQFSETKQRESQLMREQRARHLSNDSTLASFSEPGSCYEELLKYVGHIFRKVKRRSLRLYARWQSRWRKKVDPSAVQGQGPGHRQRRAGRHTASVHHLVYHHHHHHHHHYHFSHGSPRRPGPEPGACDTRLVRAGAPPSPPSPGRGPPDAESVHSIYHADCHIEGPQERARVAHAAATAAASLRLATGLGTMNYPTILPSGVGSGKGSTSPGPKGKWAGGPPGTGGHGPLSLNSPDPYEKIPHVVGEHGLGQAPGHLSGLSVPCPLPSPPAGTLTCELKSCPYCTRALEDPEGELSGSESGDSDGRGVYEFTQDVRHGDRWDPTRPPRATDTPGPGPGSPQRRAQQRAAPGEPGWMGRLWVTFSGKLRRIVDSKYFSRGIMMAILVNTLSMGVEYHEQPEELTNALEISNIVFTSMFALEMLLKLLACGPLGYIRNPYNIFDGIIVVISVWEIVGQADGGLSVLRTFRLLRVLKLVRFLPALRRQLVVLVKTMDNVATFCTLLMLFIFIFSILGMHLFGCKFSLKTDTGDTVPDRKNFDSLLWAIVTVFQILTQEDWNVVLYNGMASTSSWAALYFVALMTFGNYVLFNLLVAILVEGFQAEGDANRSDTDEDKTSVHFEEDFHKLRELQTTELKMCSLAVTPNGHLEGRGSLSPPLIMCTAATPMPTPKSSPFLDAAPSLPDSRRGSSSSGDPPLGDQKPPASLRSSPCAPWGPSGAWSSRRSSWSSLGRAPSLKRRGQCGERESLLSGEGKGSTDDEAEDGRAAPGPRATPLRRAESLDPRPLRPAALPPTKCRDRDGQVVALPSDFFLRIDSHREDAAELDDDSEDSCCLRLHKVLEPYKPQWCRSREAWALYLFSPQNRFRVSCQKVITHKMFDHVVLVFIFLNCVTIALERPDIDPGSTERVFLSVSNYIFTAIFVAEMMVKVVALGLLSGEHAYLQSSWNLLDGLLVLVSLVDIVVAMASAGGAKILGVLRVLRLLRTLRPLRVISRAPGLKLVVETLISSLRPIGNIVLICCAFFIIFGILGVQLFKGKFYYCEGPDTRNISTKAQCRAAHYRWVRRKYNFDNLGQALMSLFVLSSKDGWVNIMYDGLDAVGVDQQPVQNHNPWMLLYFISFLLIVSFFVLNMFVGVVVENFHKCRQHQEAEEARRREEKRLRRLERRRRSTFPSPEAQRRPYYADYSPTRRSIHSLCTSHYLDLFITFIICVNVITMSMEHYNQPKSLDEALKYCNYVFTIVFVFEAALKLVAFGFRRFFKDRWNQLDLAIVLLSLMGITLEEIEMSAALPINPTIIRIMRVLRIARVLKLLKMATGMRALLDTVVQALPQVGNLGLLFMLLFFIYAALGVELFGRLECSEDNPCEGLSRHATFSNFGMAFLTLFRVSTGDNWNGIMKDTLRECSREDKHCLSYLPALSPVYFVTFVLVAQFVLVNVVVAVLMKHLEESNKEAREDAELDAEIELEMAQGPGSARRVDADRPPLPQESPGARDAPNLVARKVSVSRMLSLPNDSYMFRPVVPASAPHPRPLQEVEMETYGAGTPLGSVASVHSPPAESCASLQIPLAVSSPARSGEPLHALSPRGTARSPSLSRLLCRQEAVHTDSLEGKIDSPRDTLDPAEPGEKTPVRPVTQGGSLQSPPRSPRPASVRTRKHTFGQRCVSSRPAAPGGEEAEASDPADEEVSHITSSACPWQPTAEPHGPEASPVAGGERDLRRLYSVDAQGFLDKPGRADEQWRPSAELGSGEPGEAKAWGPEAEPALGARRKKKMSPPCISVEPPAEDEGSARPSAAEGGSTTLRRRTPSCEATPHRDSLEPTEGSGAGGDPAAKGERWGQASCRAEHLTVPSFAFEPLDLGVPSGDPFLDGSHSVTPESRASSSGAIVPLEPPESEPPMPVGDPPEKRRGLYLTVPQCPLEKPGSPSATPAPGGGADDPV
The experiment in a line: T-type calcium channel block, whole cell patch clamp (α1H). The class given is cell-based. Conditions: HEK cells stably expressing human α1H; mainly non-inactivated protocol; values above 10 μM represented as 10 μM. As for the experimental part:
as §1, §2, §3, §4
Consider `Cc1cc(CN[C@H]2CC[C@@H](CNC(=O)c3cc(F)cc(C(F)(F)F)c3)CC2)cc(C)c1O` [Compound 5, 3-fluoro-N-((cis-4-(4-hydroxy-3,5-dimethylbenzylamino)cyclohexyl)methyl)-5-(trifluoromethyl)benzamide], for which the IC50 was determined as 0.25 µM.

With `CC(C)(C)OC(=O)NC1(CN[C@H]2CC[C@@H](CNC(=O)c3cc(C(F)(F)F)cc(C(F)(F)F)c3)CC2)CCCC1` [Compound 6, tert-butyl 1-((cis-4-((3,5-bis(trifluoromethyl)benzamido)methyl)cyclohexylamino)methyl)cyclopentylcarbamate], the IC50 came to 0.28 µM.

Turning to `Cc1cccc(CN[C@H]2CC[C@H](CNC(=O)c3cc(C(F)(F)F)cc(C(F)(F)F)c3)CC2)c1O` [Compound 28, N-((trans-4-(2-hydroxy-3-methylbenzylamino)cyclohexyl)methyl)-3,5-bis(trifluoromethyl)benzamide], the IC50 is 2.24 µM.

Consider `COc1ccc(CN[C@H]2CC[C@@H](CC(=O)Nc3nc(-c4ccc(C)cc4)cs3)CC2)c(O)c1` [Compound 36, 2-(cis-4-(2-hydroxy-4-methoxybenzylamino)cyclohexyl)-N-(4-p-tolylthiazol-2-yl)acetamide], for which the IC50 was no less than 10 µM.

Regarding `Cc1ccc(-c2csc(NC(=O)C[C@H]3CC[C@@H](NCC4(NC(=O)OC(C)(C)C)CCCC4)CC3)n2)cc1` [Compound 37], the IC50 is 5.37 µM.

For the compound `Cc1ccc(-c2csc(NC(=O)C[C@H]3CC[C@@H](NCC(C)(C)NC(=O)OC(C)(C)C)CC3)n2)cc1` [Compound 38, tert-butyl 2-methyl-1-(cis-4-(2-oxo-2-(4-p-tolylthiazol-2-ylamino)ethyl)cyclohexylamino)propan-2-ylcarbamate], the IC50 was determined as 7.93 µM.
